Results on 15 compounds are retold here after ChEMBL document CHEMBL3217502, “Synthesis of dual AChE/5-HT4 receptor multi-target directed ligands” (Medchemcomm, 2012).

Test [1] has as its target 5-hydroxytryptamine receptor 4 (Cavia porcellus, UniProt O70528). Briefly: Displacement of [3H]-GR113808 from guinea pig 5HT4 receptor by Grossman's method.
The target in test [2] is 5-hydroxytryptamine receptor 4 (Homo sapiens) (UniProt Q13639). As to the kind of experiment: Displacement of [3H]-GR113808 from human 5HT4E receptor at 10^-8 M after 30 mins by liquid scintillation counting. (Loss of bound radioactivity is the signal in a displacement assay; it reports binding, not function.)
Another test deals with Acetylcholinesterase (Electrophorus electricus, UniProt O42275). As to the kind of experiment: Inhibition of electric eel AChE using acetylthiocholine iodide as substrate preincubated for 5 mins before substrate addition measured for 10 mins by Ellman's method. For orientation: In Ellman's method for cholinesterases, released thiocholine reacts with DTNB.
The target in test [3] is 5-hydroxytryptamine receptor 4 (Homo sapiens) (UniProt Q13639). As to the kind of experiment: Displacement of [3H]-GR113808 from human 5HT4E receptor at 10^-6 M after 30 mins by liquid scintillation counting.

Chain of 5-hydroxytryptamine receptor 4 (Homo sapiens) (Q13639 whole entry): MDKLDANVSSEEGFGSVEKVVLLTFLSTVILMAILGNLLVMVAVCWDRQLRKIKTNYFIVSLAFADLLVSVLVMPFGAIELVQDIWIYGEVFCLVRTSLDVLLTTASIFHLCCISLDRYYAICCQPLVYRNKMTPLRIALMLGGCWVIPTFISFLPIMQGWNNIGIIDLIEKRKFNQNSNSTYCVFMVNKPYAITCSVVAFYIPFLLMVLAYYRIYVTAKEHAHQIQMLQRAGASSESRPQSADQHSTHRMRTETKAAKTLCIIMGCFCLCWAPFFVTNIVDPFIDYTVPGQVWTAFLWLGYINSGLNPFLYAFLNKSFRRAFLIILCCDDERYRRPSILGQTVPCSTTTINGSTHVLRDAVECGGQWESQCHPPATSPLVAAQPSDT
Chain of 5-hydroxytryptamine receptor 4 (O70528 whole entry): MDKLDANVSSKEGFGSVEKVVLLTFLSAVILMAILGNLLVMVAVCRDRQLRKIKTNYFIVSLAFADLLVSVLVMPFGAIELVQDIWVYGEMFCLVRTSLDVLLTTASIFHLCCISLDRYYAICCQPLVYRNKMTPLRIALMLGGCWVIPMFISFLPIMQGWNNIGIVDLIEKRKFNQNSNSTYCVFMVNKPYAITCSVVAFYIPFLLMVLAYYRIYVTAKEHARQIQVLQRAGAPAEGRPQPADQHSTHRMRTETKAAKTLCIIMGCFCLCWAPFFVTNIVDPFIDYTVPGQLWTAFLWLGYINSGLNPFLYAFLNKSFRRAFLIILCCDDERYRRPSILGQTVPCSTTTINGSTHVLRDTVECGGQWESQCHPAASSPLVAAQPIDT
Chain of Acetylcholinesterase (O42275 whole entry): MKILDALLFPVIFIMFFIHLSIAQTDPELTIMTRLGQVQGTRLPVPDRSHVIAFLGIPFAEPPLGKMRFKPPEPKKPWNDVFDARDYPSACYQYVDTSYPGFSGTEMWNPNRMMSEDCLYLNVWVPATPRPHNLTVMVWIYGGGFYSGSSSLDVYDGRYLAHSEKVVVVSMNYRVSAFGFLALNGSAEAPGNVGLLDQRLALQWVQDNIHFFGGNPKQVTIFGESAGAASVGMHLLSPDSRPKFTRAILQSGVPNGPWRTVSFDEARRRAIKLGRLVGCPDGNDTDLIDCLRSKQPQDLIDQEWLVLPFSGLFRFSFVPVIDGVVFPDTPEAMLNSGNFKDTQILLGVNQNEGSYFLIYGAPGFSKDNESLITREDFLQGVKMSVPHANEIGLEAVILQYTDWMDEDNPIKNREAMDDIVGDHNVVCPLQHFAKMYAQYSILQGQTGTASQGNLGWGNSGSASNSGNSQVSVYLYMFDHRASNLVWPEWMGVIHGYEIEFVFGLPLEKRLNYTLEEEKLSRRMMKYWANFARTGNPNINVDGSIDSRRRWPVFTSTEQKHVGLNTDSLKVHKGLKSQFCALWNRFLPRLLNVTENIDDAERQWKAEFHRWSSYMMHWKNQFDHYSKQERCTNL

Usually Ki stands for the dissociation constant of the complex between target and ligand, obtained from inhibition or displacement. Low values mean tighter binding, high ones weaker binding. Compound `COc1ccc(CN2CCC(COc3nc4ccsc4n4cccc34)CC2)cc1` returned a Ki in test [1] of 216 nM. In other words, the sub-micromolar range.

As usually defined, the inhibition is the change of the read-out against control, counted positive when it falls. Lower therefore signals a weak effect. A word on the IC50: it is the concentration needed to halve the response being measured. A lower IC50 goes with greater potency. With `Cc1csc2nc(OCC3CCN(CC4CCCCC4)CC3)c3cccn3c12`, the values for the inhibition in test [2] and in test [3] were 60% and 99%, respectively. This compound returned an IC50 at Acetylcholinesterase of 95.8 nM. In test [1], the affinity corresponds to a Ki of 4.2 nM.

With `Fc1ccc(CN2CCC(COc3nc4ccsc4n4cccc34)CC2)cc1`, in test [1], the Ki is 99 nM. That is a double-digit nanomolar value.

At Acetylcholinesterase, `c1ccc(CN2CCC(CCOc3nc4ccsc4n4cccc34)CC2)cc1` gave an IC50 of 561 nM.

As for `c1cc2c(OCC3CCN(CC4CCCCC4)CC3)nc3ccsc3n2c1`, the inhibition in test [2] is 22%; in test [3], 99%. In addition, it took 206 nM to reach half-maximal inhibition at Acetylcholinesterase (IC50). The compound also returned an inhibitory constant (Ki) in test [1] of 79.9 nM.

In test [1], `c1ccc(CCCN2CCC(COc3nc4ccsc4n4cccc34)CC2)cc1` displayed a Ki of 75.8 nM.

Consider `Cc1csc2nc(OCC3CCN(Cc4ccccc4)CC3)c3cccn3c12`, for which the inhibition in test [2] turned out to be 38%; in test [3], 98%. For the same compound, the half-maximal inhibitory concentration (IC50) at Acetylcholinesterase was found to be 165 nM. The affinity in test [1] corresponds to a Ki of 22 nM.

Turning to `Cc1csc2nc(OCC3CCN(CC4CCCC4)CC3)c3cccn3c12`, the inhibition in test [2] amounted to 78%; in test [3] it was 100%. The concentration for half-maximal inhibition (IC50) against Acetylcholinesterase amounted to 553 nM. The same compound came in with a Ki in test [1] of 21.3 nM.

In the case of `CCCN1CCC(COc2nc3scc(C)c3n3cccc23)CC1`, the 50% inhibitory concentration (IC50) against Acetylcholinesterase was 5000 nM. The affinity in test [1], expressed as Ki, was 6 nM.

`c1ccc(CCN2CCC(COc3nc4ccsc4n4cccc34)CC2)cc1`: in test [1], the inhibition constant Ki was found to be 49.8 nM.

Compound `c1cc2c(OCC3CCN(CC4CC4)CC3)nc3ccsc3n2c1` returned an inhibitory constant (Ki) in test [1] of 53 nM. This Ki and that of the compound before are within 1.5-fold of each other.

Take `c1ccc(CN2CCC(COc3nc4ccsc4n4cccc34)CC2)cc1`: the inhibition in test [2] was determined as 30%; in test [3], 96%. The compound also registered an IC50 against Acetylcholinesterase of 551 nM. In test [1], the inhibition constant (Ki) was 52.9 nM.

Turning to `c1cc2c(OCC3CCN(CC4CCC4)CC3)nc3ccsc3n2c1`, the Ki in test [1] was 25.9 nM.

In turn, `c1cc2c(OCC3CCN(Cc4ccncc4)CC3)nc3ccsc3n2c1` displayed a Ki in test [1] of 174 nM.

With `c1cc2c(OCC3CCN(CC4CCCC4)CC3)nc3ccsc3n2c1`, the inhibition in test [2] is 39%; in test [3] it was 100%. The compound further registered a half-inhibitory concentration (IC50) at Acetylcholinesterase of 597 nM. This compound also registered a Ki in test [1] of 44.8 nM.
